Source: US20190070170A1, “METHOD OF S[…]-1” (Macau University of Science and Technology, priority 2017, published 2019)

Tests used:
IL-6 = IL-6 level in LPS-stimulated rat peritoneal macrophages (ELISA); type: cell-based; conditions: pretreatment 1 h, LPS 1 μg/ml 24 h
Protocol: Sprague-Dawley (SD) rats from the University of Hong Kong were housed in cages with free access to food and water. Peritoneal macrophages of SD rats were isolated as described in Liu J. et al., Pharmacological research 2016, 111:303-315. Briefly, untreated rats were sacrificed and after laparotomy, about 50 ml cold sterile Hank's balanced salt solution (HBSS) was used to lavage the peritoneal cavity at twice, and then the peritoneal lavage fluid was collected and centrifuged at 1500 rpm for 10 min. The cell pellets was suspended at a density 1.5×10^6 cells/ml in pre-hearted DMEM medium with 10% heat-inactivated FBS, penicillin G (100 units/ml), streptomycin ([…]), and L-glutamine (2 mM), followed by seeding in 6-well plates at a density of 4.5×10^6 cells and incubation for 2 h. Then the medium were discarded to remove the non-adherent cells. The adherent cells were further washed for two times with pre-heated DMEM medium to remove floating cells. Next, cells were pre-treated with various concentration of SIN for 1 h, followed by stimulation with LPS (1 μg/ml).
RAW264.7 cells and rat peritoneal macrophages were seeded in a 96-well plate at density of 1.4×10^4 and 1.5×10^5 cells, respectively. […] The optical density was measured at 570 nm against a reference wavelength of 650 nm using a microplate UV/VIS spectrophotometer (Tecan, Mannedorf, Switzerland). […]

CEBPβ (mPGES-1 promoter) = assay: ChIP assay: CEBPβ DNA binding to mPGES-1 promoter in LPS-stimulated rat peritoneal macrophages; type: cell-based; conditions: 640 μM SIN 1 h, 1 μg/ml LPS 30 min
Protocol: Rat peritoneal macrophages were pretreated with 640 μM SIN (1 h) and stimulated with 1 μg/ml LPS (30 min) before fixation at room temperature for 10 min with 1% formaldehyde. Fixation was terminated by adding glycine (to 0.125 M) with an additional incubation of 5 min, then the cells were washed twice with ice-cold PBS and harvested by scraping and centrifugation (1500 rpm for 10 min at 4° C.). Cell lysis was performed using ChIP kit from abcam (Cambridge, UK) according to the manufacturer's instructions. Briefly, cell pellets were resuspended in 1 ml Buffer B by pipetting up and down several times in a microcentrifuge tube and incubated at room temperature for 10 min. After centrifugation at 5000 rpm, the pellet was collected and resuspended in ice cold Buffer C and incubated on ice for 10 min, followed by centrifugation (5,000 rpm for 10 min at 4° C.). The pellet was mixed with 100 μl Buffer D containing protease inhibitors, incubated on ice for 10 min and sonicated for 30 cycles in a Bioruptor UCD-300 sonicator (power on high, 30 s on, 30 s off per cycle), yielding DNA fragments of 150-200 bps (the size of sonicated chromatin was checked through running 2% agarose gel). Beads were blocked overnight in PBS with 0.5% BSA and then added to the samples. […]

Q: For `COC1=C[C@@H]2[C@@H]3Cc4ccc(OC)c(O)c4[C@]2(CCN3C)CC1=O` [SIN, sinomenine], which IL-6 production (IL-6) is on record?
A: significantly inhibited

Q: What about the “DNA binding of CEBPβ to the mPGES-1 promoter” value (CEBPβ (mPGES-1 promoter)) of the same compound?
A: inhibited
